US20250092039A1, “GLUTARIMIDE-CONTAINING PAN-KRAS-MUTANT DEGRADER COMPOUNDS AND USES THEREOF” (Tiger Biotherapeutics Inc., priority 2022, published 2025)
pIC50: −log10 of the molar value. Where two headings read alike, the source gives them in different places.

Tests used:
KRAS-G12V/RAF1 = KRAS-G12V/RAF1 (Homo sapiens (Human), UniProt P01116, G12V); test: KRAS/RAF1 binding inhibition assay (AlphaScreen)
How it was run: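 Binding of GppNHp-loaded KRAS G12V to the RAF1 RBD was measured by AlphaScreen with test compound present in 2% DMSO (final), 60 min incubation at 4° C. Signals were converted to % inhibition versus DMSO, and IC50 was obtained by variable-slope nonlinear regression.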

KRAS G12V = KRAS G12V (Homo sapiens (Human), UniProt P01116, G12V); test: KRAS G12V degradation in SW620 cells (Western blot, DC50); assay type: cell-based; settings: 24 hours
Chain of KRAS G12V (P01116-2 other isoform, or with tags, fused parts or gaps G12V): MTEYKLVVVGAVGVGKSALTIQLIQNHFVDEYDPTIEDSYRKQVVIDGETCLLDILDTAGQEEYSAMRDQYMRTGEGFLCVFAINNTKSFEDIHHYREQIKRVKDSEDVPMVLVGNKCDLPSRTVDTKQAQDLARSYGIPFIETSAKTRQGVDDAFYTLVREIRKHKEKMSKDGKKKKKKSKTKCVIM
How it was run: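 SW620 cells (homozygous KRAS G12V) were treated with compound for 24 hours at 37° C. KRAS in lysates was measured by Western blot with fluorescent secondary antibodies and expressed relative to DMSO vehicle (100%). DC50 came from a four-parameter variable-slope dose-response fit.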

SW620 cells = test: 3D cell growth inhibition of SW620 cells carrying endogenous KRAS G12V mutation (CellTiter-Glo 3D, GI50); assay type: cell-based; settings: Homo sapiens, SW-620, 144 h, read-out: SW620 3D cell growth GI50
How it was run: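 SW620 cells (endogenous KRAS G12V) grown in 3D were dosed next day with compound from DMSO stocks at various concentrations, then incubated 6 days at 37° C.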

Chain of KRAS-G12V/RAF1 (P01116-2 other isoform, or with tags, fused parts or gaps G12V): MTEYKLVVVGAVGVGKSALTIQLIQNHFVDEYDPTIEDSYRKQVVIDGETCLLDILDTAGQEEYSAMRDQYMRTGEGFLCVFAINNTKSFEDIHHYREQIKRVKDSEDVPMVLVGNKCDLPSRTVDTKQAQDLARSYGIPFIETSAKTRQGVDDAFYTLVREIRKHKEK

Question: `CCc1c(F)ccc2cc(O)cc(-c3ncc4c(N5CCC[C@@](C)(O)C5)nc(OCC5(CN6CCC7(CCN(CCc8cc(F)c(C9CCC(=O)NC9=O)c(F)c8)CC7)CC6)CC5)nc4c3F)c12` (stereo partly drawn) [Compound 56, 3-(4-(2-(9-((1-(((7-(8-ethyl-7-fluoro-3-hydroxynaphthalen-1-yl)-8-fluoro-4-((R)-3-hydroxy-3-methylpiperidin-1-yl)pyrido[4,3-d]pyrimidin-2-yl)oxy)methyl)cyclopropyl)methyl)-3,9-diazaspiro[5.5]undecan-3-yl)ethyl)-2,6-difluorophenyl) piperidine-2,6-dione] was tested. Which pIC50 (KRAS-G12V/RAF1) did it give?
Answer: The pIC50 was greater than 7.70.

Question: What about the DC50 (KRAS G12V) of the same compound?
Answer: The DC50 was 0.001 to 0.01 µM.

Question: What about the GI50 (SW620 cells) of the same compound?
Answer: Its GI50 is less than 0.01 µM.

Question: With `CCc1c(F)ccc2cc(O)cc(-c3ncc4c(N5CCC[C@@](C)(O)C5)nc(OCC5(CN6CCC(N7CC8(CCN(c9cc(F)c(C%10CCC(=O)NC%10=O)c(F)c9)CC8)C7)CC6)CC5)nc4c3F)c12` (stereo partly drawn) [Compound 57, 3-(4-(2-(1-((1-(((7-(8-ethyl-7-fluoro-3-hydroxynaphthalen-1-yl)-8-fluoro-4-((R)-3-hydroxy-3-methylpiperidin-1-yl)pyrido[4,3-d]pyrimidin-2-yl)oxy)methyl)cyclopropyl)methyl)piperidin-4-yl)-2,7-diazaspiro[3.5]nonan-7-yl)-2,6-difluorophenyl)piperidine-2,6-dione] as the compound, how does the pIC50 (KRAS-G12V/RAF1) read?
Answer: Its pIC50 is greater than 7.70.

Question: What about the DC50 (KRAS G12V) of the same compound?
Answer: Its DC50 is 0.001 to 0.01 µM.

Question: And the GI50 (SW620 cells; SW620 cells, 6 days)?
Answer: Its GI50 is less than 0.01 µM.

Question: What does the source list for `CCc1c(F)ccc2cc(O)cc(-c3ncc4c(N5CCC[C@@](C)(O)C5)nc(OCC5(CN6CCC(C)(CN7CCN(c8ccc9c(c8)CN([C@@H]8CCC(=O)NC8=O)C9=O)CC7)CC6)CC5)nc4c3F)c12` [Compound 63, (R)-3-(5-(4-((1-((1-(((7-(8-ethyl-7-fluoro-3-hydroxynaphthalen-1-yl)-8-fluoro-4-((R)-3-hydroxy-3-methylpiperidin-1-yl)pyrido[4,3-d]pyrimidin-2-yl)oxy)methyl)cyclopropyl)methyl)-4-methylpiperidin-4-yl)methyl)piperazin-1-yl)-1-oxoisoindolin-2-yl)piperidine-2,6-dione]?
Answer: pIC50 (KRAS-G12V/RAF1): 6.70 to 7.70; DC50 (KRAS G12V): 0.001 to 0.01 µM; GI50 (SW620 cells; SW620 cells, 6 days): < 0.01 µM

Question: How did the pIC50 (KRAS-G12V/RAF1) turn out when `CCc1c(F)ccc2cc(O)cc(-c3ncc4c(N5CCC[C@@](C)(O)C5)nc(OCC5(CN6CCC(F)(CN7CCC(N8CCN(c9ccc%10c(c9)CN([C@H]9CCC(=O)NC9=O)C%10=O)CC8)CC7)CC6)CC5)nc4c3F)c12` [Compound 72, (S)-3-(5-(4-(1-((1-((1-(((7-(8-ethyl-7-fluoro-3-hydroxynaphthalen-1-yl)-8-fluoro-4-((R)-3-hydroxy-3-methylpiperidin-1-yl)pyrido[4,3-d]pyrimidin-2-yl)oxy)methyl)cyclopropyl)methyl)-4-fluoropiperidin-4-yl)methyl)piperidin-4-yl)piperazin-1-yl)-1-oxoisoindolin-2-yl)piperidine-2,6-dione] was run?
Answer: The pIC50 was greater than 7.70.

Question: What about the DC50 (KRAS G12V) of the same compound?
Answer: Its DC50 is less than 0.001 µM.

Question: And the GI50 (SW620 cells; SW620 cells, 6 days)?
Answer: Its GI50 is less than 0.01 µM.

Question: `CCc1cccc2cc(O)cc(-c3ncc4c(N5CCC[C@@](C)(O)C5)nc(OCC5(CN6CCC7(CC6)CC(CN6CCN(c8ccc9c(c8)CN([C@H]8CCC(=O)NC8=O)C9=O)CC6)C7)CC5)nc4c3F)c12` [Compound 87, (S)-3-(5-(4-((7-((1-(((7-(8-ethyl-3-hydroxynaphthalen-1-yl)-8-fluoro-4-((R)-3-hydroxy-3-methylpiperidin-1-yl)pyrido[4,3-d]pyrimidin-2-yl)oxy)methyl)cyclopropyl)methyl)-7-azaspiro[3.5]nonan-2-yl)methyl)piperazin-1-yl)-1-oxoisoindolin-2-yl)piperidine-2,6-dione] was tested. Which pIC50 (KRAS-G12V/RAF1) did it give?
Answer: The pIC50 was 6.70 to 7.70.

Question: And the DC50 (KRAS G12V)?
Answer: The DC50 was 0.001 to 0.01 µM.

Question: And the GI50 (SW620 cells)?
Answer: Its GI50 is less than 0.01 µM.
